Nine compounds from ChEMBL document CHEMBL2016457, “Discovery of potent and orally bioavailable 17β-hydroxysteroid dehydrogenase type 3 inhibitors” (Bioorg Med Chem, 2012) can be followed below.

Each structure is given as a SMILES string. Activity calls are given as the source filed them. No rule for the calls is given here.

Test [1] has as its target T1, Estrogen receptor (Homo sapiens) (UniProt P03372).
T1 sequence (whole entry): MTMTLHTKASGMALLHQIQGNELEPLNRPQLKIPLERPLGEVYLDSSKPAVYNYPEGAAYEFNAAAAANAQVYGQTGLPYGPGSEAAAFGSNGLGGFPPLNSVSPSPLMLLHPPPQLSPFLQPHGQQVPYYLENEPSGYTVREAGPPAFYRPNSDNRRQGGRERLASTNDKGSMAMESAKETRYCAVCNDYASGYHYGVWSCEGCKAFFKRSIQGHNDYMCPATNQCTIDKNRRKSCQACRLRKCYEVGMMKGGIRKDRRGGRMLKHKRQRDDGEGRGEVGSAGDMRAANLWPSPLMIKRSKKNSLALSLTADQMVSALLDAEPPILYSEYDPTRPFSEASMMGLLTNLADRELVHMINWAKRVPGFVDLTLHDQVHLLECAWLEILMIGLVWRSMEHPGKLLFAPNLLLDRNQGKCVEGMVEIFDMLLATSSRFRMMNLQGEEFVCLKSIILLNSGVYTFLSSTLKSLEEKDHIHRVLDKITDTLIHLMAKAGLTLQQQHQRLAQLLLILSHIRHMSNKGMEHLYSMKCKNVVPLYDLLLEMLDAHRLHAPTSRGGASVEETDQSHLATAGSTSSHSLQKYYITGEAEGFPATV
In words: Agonist activity at human Estrogen receptor ERalpha expressed in human HeLa cells assessed as DHT-induced response after 40 hrs by luciferase/beta-galactosidase-based reporter gene assay. The test is classed as functional, cell-based.

Test [2] addresses T2, Glucocorticoid receptor (Homo sapiens) (UniProt P04150).
T2 sequence (whole entry): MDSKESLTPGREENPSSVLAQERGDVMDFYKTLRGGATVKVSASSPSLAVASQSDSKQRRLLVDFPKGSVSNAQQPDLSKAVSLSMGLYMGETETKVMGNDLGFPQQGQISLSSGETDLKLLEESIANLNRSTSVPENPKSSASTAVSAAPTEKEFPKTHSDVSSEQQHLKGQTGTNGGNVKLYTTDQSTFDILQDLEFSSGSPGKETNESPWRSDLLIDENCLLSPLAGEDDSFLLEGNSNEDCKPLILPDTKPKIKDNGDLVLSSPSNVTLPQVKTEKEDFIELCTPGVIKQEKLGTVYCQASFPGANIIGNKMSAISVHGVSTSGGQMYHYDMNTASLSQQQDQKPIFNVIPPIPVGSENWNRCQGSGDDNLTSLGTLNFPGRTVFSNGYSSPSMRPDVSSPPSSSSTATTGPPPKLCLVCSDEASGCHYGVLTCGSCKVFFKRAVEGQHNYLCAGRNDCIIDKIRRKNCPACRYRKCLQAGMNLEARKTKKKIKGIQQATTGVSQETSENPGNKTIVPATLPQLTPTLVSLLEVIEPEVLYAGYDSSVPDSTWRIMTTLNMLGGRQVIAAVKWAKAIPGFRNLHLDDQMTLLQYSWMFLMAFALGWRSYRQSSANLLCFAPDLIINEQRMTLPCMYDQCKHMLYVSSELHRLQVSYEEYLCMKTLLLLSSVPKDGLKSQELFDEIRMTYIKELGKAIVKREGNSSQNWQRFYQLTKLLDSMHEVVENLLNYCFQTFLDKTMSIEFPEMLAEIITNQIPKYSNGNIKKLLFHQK
The test can be described thus: Antagonist activity at human GR receptor expressed in human HeLa cells assessed as inhibition of DHT-induced response after 40 hrs by luciferase/beta-galactosidase-based reporter gene assay. The test is classed as functional, cell-based.

Test [3] has as its target T3, 17-beta-hydroxysteroid dehydrogenase type 1 (Homo sapiens) (UniProt P14061).
T3 sequence (whole entry): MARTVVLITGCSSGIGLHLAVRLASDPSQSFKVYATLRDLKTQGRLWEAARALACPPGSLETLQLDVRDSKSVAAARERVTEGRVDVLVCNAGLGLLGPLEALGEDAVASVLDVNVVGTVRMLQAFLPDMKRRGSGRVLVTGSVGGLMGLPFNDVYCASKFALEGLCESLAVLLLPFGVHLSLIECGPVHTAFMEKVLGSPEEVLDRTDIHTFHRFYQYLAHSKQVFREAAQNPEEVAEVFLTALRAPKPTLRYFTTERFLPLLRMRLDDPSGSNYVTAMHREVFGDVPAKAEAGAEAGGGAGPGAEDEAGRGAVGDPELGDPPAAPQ
The test can be described thus: Inhibition of human recombinant 17-beta-HSD1 expressed in human HeLa cells using estrone as substrate preincubated for 30 mins prior substrate addition measured after 120 mins by spectrophotometry. The test is classed as cell-based.

Test [4] has as its target T2, Glucocorticoid receptor (Homo sapiens). In words: Agonist activity at human Glucocorticoid receptor expressed in human HeLa cells assessed as DHT-induced response after 40 hrs by luciferase/beta-galactosidase-based reporter gene assay. The test is classed as functional, cell-based.
The target of test [5] is T4, 17-beta-hydroxysteroid dehydrogenase type 3 (Homo sapiens, UniProt P37058).
T4 sequence (P37058 whole entry): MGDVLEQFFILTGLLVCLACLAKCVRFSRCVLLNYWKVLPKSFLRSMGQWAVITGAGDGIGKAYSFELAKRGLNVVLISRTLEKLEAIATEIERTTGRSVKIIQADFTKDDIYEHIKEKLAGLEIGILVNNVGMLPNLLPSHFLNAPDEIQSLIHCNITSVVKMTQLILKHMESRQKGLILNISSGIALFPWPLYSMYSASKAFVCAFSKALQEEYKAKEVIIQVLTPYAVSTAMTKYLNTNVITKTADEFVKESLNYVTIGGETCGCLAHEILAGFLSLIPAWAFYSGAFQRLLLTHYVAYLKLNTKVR
Description: Inhibition of human recombinant 17-beta-HSD3 expressed in human HeLa cells using androstenedione as substrate preincubated for 30 mins prior substrate addition measured after 120 mins by spectrophotometry

The target of test [6] is T1, Estrogen receptor (Homo sapiens). In words: Antagonist activity at human ERalpha receptor expressed in human HeLa cells assessed as inhibition of DHT-induced response after 40 hrs by luciferase/beta-galactosidase-based reporter gene assay. The test is classed as functional, cell-based.
The target in test [7] is T5, 17-beta-hydroxysteroid dehydrogenase type 2 (Homo sapiens) (UniProt P37059).
T5 sequence (whole entry): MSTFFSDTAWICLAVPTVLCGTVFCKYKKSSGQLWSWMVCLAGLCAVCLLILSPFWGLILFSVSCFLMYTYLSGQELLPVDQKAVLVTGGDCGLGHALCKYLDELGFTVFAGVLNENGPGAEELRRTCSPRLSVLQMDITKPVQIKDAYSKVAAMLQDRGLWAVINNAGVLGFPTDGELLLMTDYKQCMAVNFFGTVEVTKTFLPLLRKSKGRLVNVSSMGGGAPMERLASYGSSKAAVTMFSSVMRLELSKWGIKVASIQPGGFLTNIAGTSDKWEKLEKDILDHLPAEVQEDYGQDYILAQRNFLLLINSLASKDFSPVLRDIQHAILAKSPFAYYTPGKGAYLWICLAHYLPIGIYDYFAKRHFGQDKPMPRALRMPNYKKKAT
In words: Inhibition of human recombinant 17-beta-HSD2 expressed in human HeLa cells using estradiol as substrate preincubated for 30 mins prior substrate addition measured after 120 mins by spectrophotometry. The test is classed as cell-based.

The target in test [8] is T6, Androgen receptor (Homo sapiens) (UniProt P10275).
T6 sequence (whole entry): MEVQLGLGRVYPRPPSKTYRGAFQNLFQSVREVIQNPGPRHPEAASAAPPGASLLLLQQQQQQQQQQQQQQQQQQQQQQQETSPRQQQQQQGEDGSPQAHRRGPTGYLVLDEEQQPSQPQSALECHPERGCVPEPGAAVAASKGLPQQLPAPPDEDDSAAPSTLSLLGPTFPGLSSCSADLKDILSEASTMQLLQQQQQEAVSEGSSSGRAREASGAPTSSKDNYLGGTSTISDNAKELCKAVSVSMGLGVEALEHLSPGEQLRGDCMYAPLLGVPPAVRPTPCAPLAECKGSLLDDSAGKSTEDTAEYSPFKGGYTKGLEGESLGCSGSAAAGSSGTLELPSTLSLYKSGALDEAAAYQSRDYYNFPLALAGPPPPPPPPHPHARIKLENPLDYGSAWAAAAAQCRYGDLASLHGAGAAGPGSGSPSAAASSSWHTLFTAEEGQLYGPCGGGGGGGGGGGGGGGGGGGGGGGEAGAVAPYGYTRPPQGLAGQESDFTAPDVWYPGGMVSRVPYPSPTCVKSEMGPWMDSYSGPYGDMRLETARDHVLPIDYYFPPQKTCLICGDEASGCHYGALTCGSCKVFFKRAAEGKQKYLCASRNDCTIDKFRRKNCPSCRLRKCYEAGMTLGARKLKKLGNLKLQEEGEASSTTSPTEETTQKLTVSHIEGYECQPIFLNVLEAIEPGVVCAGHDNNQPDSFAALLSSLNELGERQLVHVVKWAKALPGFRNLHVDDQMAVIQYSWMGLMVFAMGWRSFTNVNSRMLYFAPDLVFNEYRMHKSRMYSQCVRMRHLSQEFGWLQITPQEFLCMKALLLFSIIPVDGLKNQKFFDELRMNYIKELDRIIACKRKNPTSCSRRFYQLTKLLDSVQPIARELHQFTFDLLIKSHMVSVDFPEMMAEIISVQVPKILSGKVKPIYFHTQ
The test can be described thus: Antagonist activity at human androgen receptor expressed in human HeLa cells assessed as inhibition of DHT-induced response after 40 hrs by luciferase/beta-galactosidase-based reporter gene assay. The test is classed as functional, cell-based.

For test [9], the target named is T6, Androgen receptor (Homo sapiens). The test can be described thus: Agonist activity at human androgen receptor expressed in human HeLa cells assessed as DHT-induced response after 40 hrs by luciferase/beta-galactosidase-based reporter gene assay. The test is classed as functional, cell-based.

With `COc1ccc(N2C(=O)/C(=C(/C)c3ccc(O)c(Br)c3)SC2=S)cc1`, the result in [1], in test [2], in [4], in test [6], in [8] and in [9] was inactive. The inhibition entry in test [3] and in test [7] was “inactive” each time. Besides, in [5], the 50% inhibitory concentration (IC50) came to 90 nM.
Take `CN1C(=O)/C(=C/c2ccc(O)c(Br)c2)SC1=S`: the outcome in test [1], in [2], in test [4], in [6], in [8] and in test [9] was inactive. Moreover, the inhibition entry in test [3] and in [7] was “inactive” in each case. Besides, the half-maximal inhibitory concentration (IC50) in test [5] is 890 nM.
As for `O=C1O/C(=C\c2ccc(O)c(Br)c2)C(=O)N1c1ccccn1`, the result in test [1], in test [2], in [4], in test [6], in test [8] and in test [9] was inactive. For the same compound, the inhibition result in test [3] and in test [7] was “inactive” in each case. Further, the concentration for half-maximal inhibition (IC50) in test [5] stood at 74 nM.
Take `Cc1ccc(N2C(=O)/C(=C/c3ccc(O)c(Br)c3)OC2=S)cc1`: the result in test [1], in test [2], in test [4], in [6], in test [8] and in [9] was inactive. Moreover, the inhibition result in [3] and in test [7] was “inactive” in each case. The half-inhibitory concentration (IC50) in test [5] amounted to 2 nM.
As for `COC(=O)c1ccc(N2C(=O)O/C(=C\c3ccc(O)c(Br)c3)C2=O)cc1`, the result in test [1], in [2], in [4], in [6], in test [8] and in test [9] was inactive. For the same compound, the inhibition entry in [3] and in test [7] was “inactive” each time. The compound further showed an IC50 in test [5] of 24 nM.
With `O=C1/C(=C/c2ccc(O)c(Br)c2)SC(=S)N1C1CCCCC1`, the result in [1], in test [2], in test [4], in test [6], in test [8] and in [9] was inactive. Moreover, the inhibition result in test [3] and in test [7] was “inactive” in each case. The midpoint of inhibition in test [5], the IC50, lay at 3 nM.
In the case of `COc1ccccc1N1C(=O)/C(=C/c2ccc(O)c(Br)c2)OC1=S`, the result in [1], in [2], in test [4], in [6], in test [8] and in test [9] was inactive. Further, the inhibition entry in test [3] and in test [7] was “inactive” throughout. The compound also yielded a 50% inhibitory concentration (IC50) in test [5] of 60 nM.
As for `COc1ccc(N2C(=O)O/C(=C\c3ccc(O)c(Br)c3)C2=O)cn1`, the result in test [1], in test [2], in test [4], in test [6], in test [8] and in test [9] was inactive. The inhibition result in test [3] and in test [7] was “inactive” in each case. Also, in [5], inhibition was half-maximal at 4 nM (IC50).
As for `O=C1O/C(=C\c2ccc(O)c(Br)c2)C(=O)N1c1cccnc1`, the result in [1], in test [2], in test [4], in test [6], in test [8] and in test [9] was inactive. Moreover, the inhibition entry in test [3] and in test [7] was “inactive” in each case. Besides, in test [5], the IC50 came to 22 nM.
